Reference: US20240261236A1, “METHODS OF USING NMDA RECEPTOR ANTAGONISTS” (Seelos Therapeutics, Inc., priority 2021, published 2024)

Experiments:
[1] = test system: adults with major depressive disorder (MDD) who are at imminent risk of suicide; test: MADRS Total, Phase 2 Part 1 open-label; assay type: in vivo, human; conditions: for MADRS mean score: baseline 39.4; for MADRS remission rate (a score of less than 12) / MADRS response rate: summary through Day 29/30
Text: The Montgomery-Åsberg Depression Rating Scale (MADRS) is a diagnostic questionnaire that can be used to measure the severity of a depressive episode in a subject. In some embodiments, the MADRS can be used to measure suicidal ideation. For example, the MADRS includes 10 items directed to the following: 1) apparent sadness (e.g., representing despondency, gloom and despair that is more than just ordinary transient low spirits that is reflected in speech, facial expression, and posture); 2) reported sadness (e.g., representing reports of depressed mood, regardless of whether it is reflected in appearance or not and can include low spirits, despondency or the feeling of being beyond help and without hope); 3) inner tension (e.g., representing feelings of ill-defined discomfort, edginess, inner turmoil, mental tension mounting to either panic, dread or anguish); 4) reduced sleep (e.g., representing the experience of reduced duration or depth of sleep compared to the subject's own normal pattern when well); 5) reduced appetite (e.g., representing the feeling of a loss of appetite compared with when-well); 6) concentration difficulties (e.g., representing difficulties in collecting one's thoughts mounting to an incapacitating lack of concentration); 7) lassitude (e.g., representing difficulty in getting started or slowness in initiating and performing everyday activities); 8) inability to feel (e.g., representing the subjective experience of reduced interest in the surroundings, or activities that normally give pleasure, and the ability to react with adequate emotion to circumstances or people is reduced); 9) pessimistic thoughts (e.g., representing thoughts of guilt, inferiority, self-reproach, sinfulness, remorse and ruin); and 10) suicidal thoughts (e.g., representing the feeling that life is not worth living, that a natural death would be welcome, suicidal thoughts, and preparations for suicide). Each item is rated from 0 units to 6 units, with 0 reflecting that the subject is not at all as described by the item and 6 reflecting that the subject is extremely like what is described by the item. […] As another example, for suicidal thoughts, a score of 0 units can indicate that the subject enjoys life or takes it as it comes; a score of 2 units can indicate that the subject is weary of life and may have fleeting suicidal thoughts; a score of 4 units can indicate that the subject feels he or she would probably be better off dead (e.g., suicidal thoughts are common, and suicide is considered as a possible solution, but without specific plans or intention); and a score of 6 units can indicate that the subject has explicit plans for suicide when there is an opportunity (e.g., the subject has made active preparations for suicide). Thus, the total score, after summation of each score for each item, is on a scale of 0 units to 60 units.
The study schedule is identical for Parts 1 and 2. After admission to the emergency room or hospital, each subject will participate in a 1 to 2 day screening phase, a 16-day treatment phase including SOC during which study drug will be administered 2 times per week, for a total of 5 doses across the 16-day treatment period and a 2-week safety follow-up phase for a total of up to 5 weeks of study participation. Subjects will be treated as inpatients for approximately 7 days (including screening), and assuming the subject meets readiness for discharge criteria, will be discharged on Day 6 to continue the trial as outpatients, provided it is clinically appropriate to do so. Subjects will return to the clinic to receive study drug and to undergo study assessments 2 times per week until Day 16. Subjects will be evaluated for efficacy using multiple psychometric scales and for safety using clinical laboratory assessments, electrocardiograms (ECGs), vital signs, and physical examinations. […]

[2] = Hemodynamic effects (blood pressure), Phase 2 Part 1; assay type: in vivo, human; conditions: for Diastolic BP: baseline 79.0; for Systolic BP: baseline 121
Text: The study schedule is identical for Parts 1 and 2. After admission to the emergency room or hospital, each subject will participate in a 1 to 2 day screening phase, a 16-day treatment phase including SOC during which study drug will be administered 2 times per week, for a total of 5 doses across the 16-day treatment period and a 2-week safety follow-up phase for a total of up to 5 weeks of study participation. Subjects will be treated as inpatients for approximately 7 days (including screening), and assuming the subject meets readiness for discharge criteria, will be discharged on Day 6 to continue the trial as outpatients, provided it is clinically appropriate to do so. Subjects will return to the clinic to receive study drug and to undergo study assessments 2 times per week until Day 16. Subjects will be evaluated for efficacy using multiple psychometric scales and for safety using clinical laboratory assessments, electrocardiograms (ECGs), vital signs, and physical examinations. After the last dose of study drug, subjects will continue to be monitored for safety for 2 weeks, including 4 in-person safety follow-up visits on Days 19, 22, 25/26, and 29/30.

For `CNC1(c2ccccc2Cl)CCCCC1=O` (racemic) [intranasal racemic ketamine, 1:1 mixture of the two enantiomers of ketamine: (R)-2-(2-chlorophenyl)-2-(methylamino)cyclohexanone and (S)-2-(2-chlorophenyl)-2-(methylamino)cyclohexanone], the “MADRS Total” value ([1]; 90 mg IN+SOC, Subject 1, 24 hours post-administration, baseline 35 units) was 8 units, the “MADRS Total” value ([1]; 90 mg IN+SOC, Subject 2, 24 hours post-administration, baseline 38 units) was 15 units and the “MADRS Total” value ([1]; 90 mg IN+SOC, Subject 2, Day 8, after second dose on Day 4) was 16 units. The “MADRS Total reduction” value ([1]; 90 mg IN+SOC, both subjects, 24 hours) was > 50%, the “MADRS mean (SD) change from baseline” value ([1]; 17 subjects enrolled, 24 hours post-dose) was −24.9 (8.34) and the “MADRS mean (SD) change from baseline” value ([1]; 17 subjects enrolled, Day 16) was −31.6 (7.31). For the same compound, the “subjects who experienced MADRS remission” value ([1]; 24 hours post-dose) was 35.5%, the “subjects who experienced MADRS response” value ([1]; 24 hours post-dose) was 76.5% and the MADRS mean score ([1]; Day 1) was 14.5. The “subjects who experienced MADRS remission” value ([1]; Day 16) was 78.6%, the “subjects who experienced MADRS response” value ([1]; Day 16) was 92.9% and the MADRS mean score ([1]; Day 16) was 7.4. For the same compound, the MADRS mean score ([1]; Day 29) was 6.3, the “MADRS mean (SD) change from baseline” value ([1]; final follow-up on Day 29/30) was −32.1 (7.4) and the “mean MADRS score” value ([1]; final follow-up on Day 29/30) was 6.3 (6.60). The “subjects who experienced MADRS remission” value ([1]; study end (Day 29/30)) was 76.9%, the “subjects who experienced MADRS response” value ([1]; study end (Day 29/30)) was 100% and the “MADRS remission rate (a score of less than 12)” value ([1]; Day 1) was 23.5%. For the same compound, the MADRS response rate ([1]; Day 1) was 76.5%, the “MADRS remission rate (a score of less than 12)” value ([1]; Day 16) was 78.6% and the MADRS response rate ([1]; Day 16) was 92.9%. The MADRS response rate ([1]; Day 29, 14 days after the last dose on Day 15) was 100%, the “Diastolic BP” value ([2]; 1 hour post first dose) was 80.9 and the “Systolic BP” value ([2]; 1 hour post first dose) was 125.8. For the same compound, the “Diastolic BP” value ([2]; 2 hours post first dose) was 78.5 and the “Systolic BP” value ([2]; 2 hours post first dose) was 121.3.
